{
  "source": "patent US6930088B2",
  "about": "“Conformationally constrained backbone cyclized somatostatin analogs” (Peptor Ltd., priority 1998, dated 2005)",
  "key": {"SSTR-3": {"molecular_target": "T1, SSTR-3 (Homo sapiens, UniProt P32745)", "T1 construct": "expressed in transfected cells", "T1 sequence (P32745 whole entry)": "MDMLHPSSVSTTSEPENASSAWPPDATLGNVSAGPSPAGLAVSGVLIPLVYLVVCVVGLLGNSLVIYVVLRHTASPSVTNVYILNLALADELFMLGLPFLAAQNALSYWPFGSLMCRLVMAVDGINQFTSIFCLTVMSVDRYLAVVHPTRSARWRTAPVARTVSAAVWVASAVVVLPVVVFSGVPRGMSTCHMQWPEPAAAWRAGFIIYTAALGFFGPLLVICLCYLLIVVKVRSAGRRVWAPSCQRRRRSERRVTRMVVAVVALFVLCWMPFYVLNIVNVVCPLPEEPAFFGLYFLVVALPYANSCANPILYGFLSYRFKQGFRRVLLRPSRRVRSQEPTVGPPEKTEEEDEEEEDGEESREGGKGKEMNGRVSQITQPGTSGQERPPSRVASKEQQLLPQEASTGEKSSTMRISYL", "test": "Inhibition of 125I-Tyr11-SRIF binding to membrane preparations expressing SSTR-3", "settings": "read-out: Percent inhibition of SRIF-14 binding", "protocol": "The somatostatin analogs were tested for their potency in inhibition of the binding of ^125I-Tyr^11-SRIF (based on the method described by Raynor et. al., Molecular Pharmacology, 1993, 43, 838-844) to membrane preparations expressing the transmembranal somatostatin receptors (SSTR-1, 2, 3, 4 or 5). The receptor preparations used for these tests were either from the cloned human receptors selectively and stably expressed in Chinese Hamster Ovary (CHO) cells or from cell lines naturally expressing the SSTRs. […] The binding reactions were filtered, the filters were washed and the bound radioactivity was counted in gamma counter. Non specific binding was defined as the radioactivity remaining bound in the presence of 1 μM unlabeled SRIF-14.\n(§1) In order to validate positive signals of the binding tests, and to eliminate non-specific signals, samples of irrelevant peptides, such as GnRH, that were synthesized and handled using the same procedures, were tested in the same assays as negative control samples. These samples had no binding activity in any of the assays. Results are shown below in Tables 5 and 6 and FIG. 1."}, "[1]": {"test_system": "Chromogranin A release from BON-1", "test": "Inhibition of Chromogranin A release from BON-1", "type": "cell-based", "settings": "human Carcinoid cell line BON-1", "text": "Assessment of Chromogranin A release from BON-1 is an important assay aimed at identifying potential anti Carcinoid drugs. Chromagranin A is one of the principal mediators in degranulation of tumor granules, which secrete excessive amounts of vasoactive substances from Carcinoid tumors."}, "[2]": {"test_system": "human Carcinoid BON-1 cells", "test": "Inhibition of cAMP in human Carcinoid BON-1 cells", "type": "cell-based", "settings": "following Forskolin stimulation", "text": "The activation of SST-R5 leads to the reduction of Adenylate Cyclase activity. Somatostatin receptors including type-5 receptors are expressed in the human Carcinoid derived cell line BON-1. This human cell culture served as an in-vitro discovery assay for novel Carcinoid therapeutics. Interaction of somatostatin analogs with Somatostatin receptors expressed in this system subsequently affects cellular functionality of BON-1."}, "insulin release": {"test_system": "insulin release", "test": "In-vivo effect on insulin release", "design": "species or system Wistar male rats", "protocol": "Insulin stimulation was induced by IV bolus administration of D-glucose to overnight fasted rats.\nAn in-vivo determination of insulin release as a result of peptide administration was measured in Wistar male rats. […] Time course profiles for […] release under constant experimental conditions were measured.\nMale Wistar rats were fasted overnight. Animals were anesthetized with Nembutal (IP, 60 mg/kg). Ten minutes after anesthesia, drugs were administrated S.C. at 0.01-100 microgram/kg dose 30 minutes before stimulation of insulin secretion performed by I.V. administration of 0.5 g/kg of D-glucose, 5 minutes before blood collection from abdominal Vena-cava. Hormone levels wer measured by RIA."}, "[3]": {"test": "In vitro biostability in renal homogenate (HPLC)", "protocol": "The assay was based on HPLC determination of peptide degradation as a function of time in renal homogenate at 37° C."}, "Opiate receptors": {"test_system": "Opiate receptors", "test": "NovaScreen nonspecific binding, Opiate receptors", "settings": "tested at 100 nM; FIG. 2", "text": "NovaScreen (Hanover, Md.) performed an assessment for nonspecific binding to various G-protein coupled receptor families. Binding studies to Neurokinin, Opiate and Muscarinic receptors were based on a comparison between the native hormone Somatostatin, Ocreotide and PTR 3173."}, "SSTR-5": {"molecular_target": "T2, SSTR-5 (Homo sapiens, UniProt P35346)", "T2 construct": "expressed in transfected cells", "T2 sequence (P35346 whole entry)": "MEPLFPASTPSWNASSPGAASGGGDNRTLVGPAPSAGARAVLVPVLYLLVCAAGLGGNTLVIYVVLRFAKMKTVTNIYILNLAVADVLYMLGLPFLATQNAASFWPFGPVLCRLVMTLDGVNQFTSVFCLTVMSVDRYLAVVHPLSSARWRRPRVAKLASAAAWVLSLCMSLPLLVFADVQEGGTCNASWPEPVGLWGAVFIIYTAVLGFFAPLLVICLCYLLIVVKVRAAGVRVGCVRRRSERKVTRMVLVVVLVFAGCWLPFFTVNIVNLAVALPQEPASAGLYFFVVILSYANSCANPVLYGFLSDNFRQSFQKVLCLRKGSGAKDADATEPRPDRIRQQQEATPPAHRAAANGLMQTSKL", "test": "Inhibition of 125I-Tyr11-SRIF binding to membrane preparations expressing SSTR-5", "settings": "read-out: Percent inhibition of SRIF-14 binding", "protocol": "(§2) The receptor preparations used for these tests were either from the cloned human receptors selectively and stably expressed in Chinese Hamster Ovary (CHO) cells or from cell lines naturally expressing the SSTRs. […] The binding reactions were filtered, the filters were washed and the bound radioactivity was counted in gamma counter. Non specific binding was defined as the radioactivity remaining bound in the presence of 1 μM unlabeled SRIF-14.\nas §1"}, "SSTR-2": {"molecular_target": "T3, SSTR-2 (Homo sapiens, UniProt P30874)", "T3 construct": "expressed in transfected cells", "T3 sequence (P30874 whole entry)": "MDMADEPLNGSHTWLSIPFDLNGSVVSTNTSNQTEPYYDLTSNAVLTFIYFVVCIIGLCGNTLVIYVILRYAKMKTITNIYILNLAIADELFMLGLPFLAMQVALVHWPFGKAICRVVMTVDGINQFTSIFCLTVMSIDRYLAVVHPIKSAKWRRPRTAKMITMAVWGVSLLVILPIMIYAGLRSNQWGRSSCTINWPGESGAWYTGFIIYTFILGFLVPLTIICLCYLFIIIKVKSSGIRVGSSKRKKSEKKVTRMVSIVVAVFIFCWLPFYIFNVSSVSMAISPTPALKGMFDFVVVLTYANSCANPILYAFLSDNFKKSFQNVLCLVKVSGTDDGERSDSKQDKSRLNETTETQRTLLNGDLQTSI", "test": "Inhibition of 125I-Tyr11-SRIF binding to membrane preparations expressing SSTR-2", "settings": "read-out: Percent inhibition of SRIF-14 binding", "protocol": "as §2, §1"}, "[4]": {"test": "Pharmacokinetics following IV & SC administration", "settings": "for dose excreted: urine"}, "[5]": {"settings": "kidney or brush border membranes"}},
  "note": "Entries after “also recorded” stand apart in the source; their conditions may differ.",
  "data": [
    {"smiles": "C[C@@H](O)[C@@H]1NC(=O)[C@H](CCCCN)NC(=O)[C@@H](Cc2c[nH]c3ccccc23)NC(=O)[C@H](Cc2c[nH]c3ccccc23)NC(=O)[C@H](Cc2ccccc2)NC(=O)CCCNC(=O)CCCN(CC(N)=O)C(=O)[C@H](Cc2ccccc2)NC1=O", "note": "[PTR 3173, GABA*-Phe-Trp-(D)Trp-Lys-Thr-Phe-Gly(C3)-X]", "values": [
      {"measurement": "inhibition at 10 pM", "setting": "SSTR-3", "value": 2, "unit": "%"},
      {"measurement": "inhibition at 0.0001 µM", "setting": "SSTR-3", "value": 1, "unit": "%"},
      {"measurement": "inhibition at 0.001 µM", "setting": "SSTR-3", "value": 1, "unit": "%"},
      {"measurement": "inhibition at 0.01 µM", "setting": "SSTR-3", "value": 4, "unit": "%"},
      {"measurement": "inhibition at 0.1 µM", "setting": "SSTR-3", "value": 50, "unit": "%"},
      {"measurement": "inhibition at 1 µM", "setting": "SSTR-3", "value": 89, "unit": "%"},
      {"measurement": "inhibition of Chromogranin A release", "setting": "[1]", "value": "inhibits Chromogranin A release; also recorded: significant anti-release effect; also recorded: equivalent potency with the native hormone Somatostatin"},
      {"measurement": "inhibition of cAMP production", "setting": "[2]", "value": "equipotent to clinically used drug Octreotide"},
      {"measurement": "effect on insulin release", "setting": "insulin release; 100 micrograms per kilogram, D-glucose stimulation, FIG. 5a", "value": "inactive on insulin"},
      {"measurement": "Insulin ID50", "setting": "insulin release; Table 4, physiological selectivity", "value": ">1", "unit": "mg/kg"},
      {"measurement": "effect on insulin release", "setting": "insulin release; dose of up to 1 milligram per kilogram, FIG. 5b", "value": "no appreciable effect on insulin"},
      {"measurement": "effect on insulin (general statement)", "setting": "insulin release; in words, no dose stated", "value": "lacks the disadvantages of Octreotide such as inhibition of Insulin secretion; also recorded: no considerable effect on insulin"},
      {"measurement": "GH/Insulin", "setting": "insulin release; ratio of ID50 values, Table 4", "value": ">10,000"},
      {"measurement": "Percent of intact molecule after incubation in renal homogenate", "setting": "[3]; Time 0 hrs, 37° C.", "value": 100, "unit": "%"},
      {"measurement": "remaining at 1 h", "setting": "[3]; [5]", "value": 100, "unit": "%"},
      {"measurement": "remaining at 3 h", "setting": "[3]; [5]", "value": 100, "unit": "%"},
      {"measurement": "remaining at 24 h", "setting": "[3]; [5]", "value": 100, "unit": "%"},
      {"measurement": "binding to Opiate receptors", "setting": "Opiate receptors", "value": "did not bind"},
      {"measurement": "inhibition at 10 pM", "setting": "SSTR-5", "value": 20, "unit": "%"},
      {"measurement": "inhibition at 0.0001 µM", "setting": "SSTR-5", "value": 48, "unit": "%"},
      {"measurement": "inhibition at 0.001 µM", "setting": "SSTR-5", "value": 63, "unit": "%"},
      {"measurement": "inhibition at 0.01 µM", "setting": "SSTR-5", "value": 82, "unit": "%"},
      {"measurement": "inhibition at 0.1 µM", "setting": "SSTR-5", "value": 95, "unit": "%"},
      {"measurement": "inhibition at 1 µM", "setting": "SSTR-5", "value": 95, "unit": "%"},
      {"measurement": "inhibition at 10 pM", "setting": "SSTR-2", "value": 15, "unit": "%"},
      {"measurement": "inhibition at 0.0001 µM", "setting": "SSTR-2", "value": 30, "unit": "%"},
      {"measurement": "inhibition at 0.001 µM", "setting": "SSTR-2", "value": 42, "unit": "%"},
      {"measurement": "inhibition at 0.01 µM", "setting": "SSTR-2", "value": 80, "unit": "%"},
      {"measurement": "inhibition at 0.1 µM", "setting": "SSTR-2", "value": 95, "unit": "%"},
      {"measurement": "inhibition at 1 µM", "setting": "SSTR-2", "value": 96, "unit": "%"},
      {"measurement": "Clearance", "setting": "[4]; SC, Conscious Wistar rats", "value": 13.3, "unit": "mL/min/kg"},
      {"measurement": "Clearance", "setting": "[4]; Wistar, rat, in vivo, iv", "value": 13, "unit": "mL/min/kg"},
      {"measurement": "Vd", "setting": "[4]; Wistar, rat, in vivo, iv", "value": 0.653, "unit": "L/kg"},
      {"measurement": "half-life", "setting": "[4]; Wistar, rat, in vivo, iv, T½β (min) circulating half life, Conscious Wistar rats", "value": 0.517, "unit": "h"},
      {"measurement": "bioavailability", "setting": "[4]; Wistar, rat, in vivo, sc", "value": 99.6, "unit": "%"},
      {"measurement": "half-life", "setting": "[4]; Wistar, rat, in vivo, sc, T½β (min) circulating half life, Conscious Wistar rats", "value": 2.83, "unit": "h"},
      {"measurement": "half-life", "setting": "[4]; Wistar, rat, in vivo, sc, circulatory half-life, subcutaneous administration to rats", "value": "~3", "unit": "h"},
      {"measurement": "dose excreted", "setting": "[4]; Wistar, rat, iv", "value": 10.3, "unit": "%"},
      {"measurement": "dose excreted", "setting": "[4]; Wistar, rat, sc", "value": 15.9, "unit": "%"},
      {"measurement": "pharmacokinetic profile", "setting": "[4]; subcutaneous administration, animals", "value": "flip flop (a slow release kinetic) pharmacokinetcs"}
    ]}
  ]
}
